Assay results taken from ChEMBL document CHEMBL3870312, “Rational modification of donepezil as multifunctional acetylcholinesterase inhibitors for the treatment of Alzheimer's disease” (Eur J Med Chem, 2016).
The source made the active and inactive calls. The calls are words filed in the database; no cut-off is given here.

Tests used:
Acetylcholinesterase [1] = target: T1, Acetylcholinesterase (Homo sapiens, UniProt P22303)
Description: Inhibition of human erythrocytes AChE using acetylthiocholine iodide as substrate preincubated for 5 mins followed by substrate addition measured up to 3 mins by Ellman's method

Cholinesterase [2] = target: Cholinesterase (Homo sapiens, UniProt P06276)
Cholinesterase (Homo sapiens, UniProt P06276), sequence (P06276 whole entry): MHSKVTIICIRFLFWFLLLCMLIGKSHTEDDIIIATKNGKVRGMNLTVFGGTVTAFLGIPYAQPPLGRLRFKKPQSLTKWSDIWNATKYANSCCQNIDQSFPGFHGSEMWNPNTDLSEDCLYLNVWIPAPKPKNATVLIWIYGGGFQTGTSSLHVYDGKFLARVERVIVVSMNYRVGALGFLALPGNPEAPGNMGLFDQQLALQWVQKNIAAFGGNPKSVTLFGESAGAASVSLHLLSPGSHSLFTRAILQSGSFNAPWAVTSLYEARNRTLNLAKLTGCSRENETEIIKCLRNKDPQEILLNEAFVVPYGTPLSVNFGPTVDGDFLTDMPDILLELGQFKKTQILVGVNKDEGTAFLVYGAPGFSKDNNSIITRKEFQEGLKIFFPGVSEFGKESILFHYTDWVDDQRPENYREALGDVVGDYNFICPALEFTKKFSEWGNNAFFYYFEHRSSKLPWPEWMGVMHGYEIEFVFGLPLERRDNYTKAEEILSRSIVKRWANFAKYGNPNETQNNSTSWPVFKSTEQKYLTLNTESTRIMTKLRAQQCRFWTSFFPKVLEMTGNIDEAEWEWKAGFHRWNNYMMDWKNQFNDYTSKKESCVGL
Description: Inhibition of human serum BuChE using s-butyrylthiocholine iodide as substrate preincubated for 5 mins followed by substrate addition measured up to 3 mins by Ellman's method

Cholinesterase [3] = target: Cholinesterase (Equus caballus, UniProt P81908)
Cholinesterase (Equus caballus, UniProt P81908), sequence (P81908 whole entry): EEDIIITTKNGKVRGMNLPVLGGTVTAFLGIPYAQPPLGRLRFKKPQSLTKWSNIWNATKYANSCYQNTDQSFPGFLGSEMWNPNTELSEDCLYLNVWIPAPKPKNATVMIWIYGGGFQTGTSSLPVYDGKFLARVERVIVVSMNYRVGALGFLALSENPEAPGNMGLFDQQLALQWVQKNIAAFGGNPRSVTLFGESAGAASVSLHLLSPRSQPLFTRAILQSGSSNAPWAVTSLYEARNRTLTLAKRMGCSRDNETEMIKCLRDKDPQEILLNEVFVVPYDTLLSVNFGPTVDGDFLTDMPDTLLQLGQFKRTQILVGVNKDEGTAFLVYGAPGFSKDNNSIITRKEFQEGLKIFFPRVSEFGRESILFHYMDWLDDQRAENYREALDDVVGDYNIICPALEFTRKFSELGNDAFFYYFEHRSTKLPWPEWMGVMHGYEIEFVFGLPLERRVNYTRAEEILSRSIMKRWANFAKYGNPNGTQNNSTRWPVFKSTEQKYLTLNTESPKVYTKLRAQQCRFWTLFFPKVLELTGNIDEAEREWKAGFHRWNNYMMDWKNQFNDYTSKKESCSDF
Description: Inhibition of equine serum BuChE using s-butyrylthiocholine iodide as substrate preincubated for 5 mins followed by substrate addition measured up to 3 mins by Ellman's method

Acetylcholinesterase [4] = target: Acetylcholinesterase (Electrophorus electricus, UniProt O42275)
Acetylcholinesterase (Electrophorus electricus, UniProt O42275), sequence (O42275 whole entry): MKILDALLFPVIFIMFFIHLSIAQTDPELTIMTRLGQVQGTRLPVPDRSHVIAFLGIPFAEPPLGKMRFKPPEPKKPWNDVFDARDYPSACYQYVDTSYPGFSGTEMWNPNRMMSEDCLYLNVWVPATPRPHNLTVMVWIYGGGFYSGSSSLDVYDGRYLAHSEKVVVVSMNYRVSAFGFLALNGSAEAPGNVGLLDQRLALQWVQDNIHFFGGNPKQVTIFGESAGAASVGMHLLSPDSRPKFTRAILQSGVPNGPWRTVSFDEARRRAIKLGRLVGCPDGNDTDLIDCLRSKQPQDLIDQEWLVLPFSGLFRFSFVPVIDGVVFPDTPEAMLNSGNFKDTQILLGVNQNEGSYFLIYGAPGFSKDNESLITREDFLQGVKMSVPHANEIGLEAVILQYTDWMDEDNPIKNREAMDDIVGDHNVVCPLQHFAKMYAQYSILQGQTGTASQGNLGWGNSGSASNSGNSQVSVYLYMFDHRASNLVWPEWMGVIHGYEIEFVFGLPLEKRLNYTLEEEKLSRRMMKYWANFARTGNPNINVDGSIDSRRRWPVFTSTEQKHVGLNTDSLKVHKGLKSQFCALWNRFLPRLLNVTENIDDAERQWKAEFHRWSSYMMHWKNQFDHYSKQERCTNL
Description: Inhibition of electric eel AChE using acetylthiocholine iodide as substrate preincubated for 5 mins followed by substrate addition measured up to 3 mins by Ellman's method

Rattus norvegicus = species: Rattus norvegicus; experiment: Cytotoxicity against rat PC12 cells assessed as reduction in cell viability at 3.125 to 50 uM after 24 hrs by MTT assay; assay type: toxicity; conditions: pc-12, 24 h
PC-12 [5] = experiment: Neuroprotective activity against amyloid beta (1 to 42 residues) induced cell death in rat PC12 cells assessed as increase in cell viability at 20 uM preincubated for 24 hrs followed by amyloid beta (1 to 42 residues) addition measured after 24 hrs by MTT assay; assay type: functional, cell-based
[6] = target: Amyloid-beta precursor protein (Homo sapiens) (UniProt P05067); conditions: at 20 µM
Amyloid-beta precursor protein (Homo sapiens), sequence (P05067 whole entry): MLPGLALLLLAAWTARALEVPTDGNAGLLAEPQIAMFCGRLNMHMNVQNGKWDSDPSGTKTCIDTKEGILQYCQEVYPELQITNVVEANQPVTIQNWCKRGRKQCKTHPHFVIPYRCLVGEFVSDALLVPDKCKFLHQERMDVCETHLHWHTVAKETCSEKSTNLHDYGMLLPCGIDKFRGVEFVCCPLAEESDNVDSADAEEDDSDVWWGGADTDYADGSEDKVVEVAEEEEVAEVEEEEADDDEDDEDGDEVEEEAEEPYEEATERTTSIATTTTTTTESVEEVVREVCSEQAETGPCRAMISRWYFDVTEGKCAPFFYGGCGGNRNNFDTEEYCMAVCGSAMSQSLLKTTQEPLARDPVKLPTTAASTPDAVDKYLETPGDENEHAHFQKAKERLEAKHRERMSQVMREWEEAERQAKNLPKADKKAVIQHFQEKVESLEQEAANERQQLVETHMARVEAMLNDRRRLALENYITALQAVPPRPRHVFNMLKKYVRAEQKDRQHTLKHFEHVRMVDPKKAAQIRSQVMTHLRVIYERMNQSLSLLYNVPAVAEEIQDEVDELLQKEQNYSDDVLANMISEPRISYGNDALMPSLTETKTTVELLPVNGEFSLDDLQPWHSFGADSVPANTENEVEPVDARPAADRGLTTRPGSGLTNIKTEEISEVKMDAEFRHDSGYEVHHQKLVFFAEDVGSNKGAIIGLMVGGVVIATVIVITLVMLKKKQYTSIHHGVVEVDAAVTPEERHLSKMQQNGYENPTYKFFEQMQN
Description: Inhibition of self-mediated aggregation of amyloid beta (1 to 42 residues) (unknown origin) at 20 uM incubated for 46 to 48 hrs by Thioflavin T binding assay relative to control

in vitro = conditions: PAMPA
Description: Effective permeability of the compound after 18 hrs by PAMPA

[7] = Inhibition of copper-mediated aggregation of amyloid beta (1 to 42 residues) (unknown origin) at 20 uM incubated for 46 to 48 hrs by thioflavin-T binding assay relative to control; assay type: physicochemical
Mus musculus [8] = experiment: Toxicity in scopolamine-induced memory deficit Kunming mouse model assessed as change in body weight at 2.5 to 10 mg/Kg, po for 7 days; assay type: organism-based; conditions: in vivo, 168 h
Mus musculus [9] = experiment: Toxicity in scopolamine-induced memory deficit Kunming mouse model assessed as effect on survival at 2.5 to 10 mg/Kg, po for 7 days; assay type: organism-based; conditions: in vivo, 168 h
Mus musculus [10] = experiment: Hepatotoxicity in scopolamine-induced memory deficit Kunming mouse model assessed as distinct fatty degeneration in hepatocytes at 10 mg/Kg, po for 6 days by hematoxylin and eosin-staining based microscopic analysis; assay type: toxicity, organism-based; conditions: in vivo, 144 h
Mus musculus [11] = experiment: Hepatotoxicity in scopolamine-induced memory deficit Kunming mouse model assessed as area of necrosis in hepatocytes at 10 mg/Kg, po for 6 days by hematoxylin and eosin-staining based microscopic analysis; assay type: toxicity, organism-based, Hepatocyte; conditions: 144 h
Mus musculus [12] = experiment: Cognitive enhancement activity in po dosed scopolamine-induced memory deficit Kunming mouse model assessed as increase in step-through latency time treated for 1 hr before training followed by scopolamine challenge 30 mins before training measured 24 hrs after training trial by passive avoidance test; assay type: functional, organism-based
Mus musculus [13] = experiment: Hepatotoxicity in scopolamine-induced memory deficit Kunming mouse model assessed as increase in number of inflammatory cells in portal fields of liver at 10 mg/Kg, po for 6 days by hematoxylin and eosin-staining based microscopic analysis; assay type: toxicity, organism-based; conditions: in vivo, 144 h
Mus musculus [14] = experiment: Hepatotoxicity in scopolamine-induced memory deficit Kunming mouse model assessed as increase in alanine aminotransferase levels at 10 mg/kg, po for 6 days; assay type: toxicity, organism-based; conditions: in vivo, 144 h
Mus musculus [15] = experiment: Hepatotoxicity in scopolamine-induced memory deficit Kunming mouse model assessed as increased aspartate aminotransferase at 10 mg/Kg, po for 6 days; assay type: toxicity, organism-based; conditions: in vivo, 144 h
Acetylcholinesterase [16] = target: T1, Acetylcholinesterase; experiment: Mixed-type inhibition of human erythrocyte AChE preincubated for 15 mins followed by addition of acetylthiocholine iodide as substrate in varying concentrations by Lineweaver-Burk reciprocal plot analysis
PC-12 [17] = experiment: Neuroprotective activity against Cu2+-amyloid beta (1 to 42 residues) induced cell death in rat PC12 cells by phase-contrast microscopy analysis; assay type: functional, cell-based
PC-12 [18] = experiment: Neuroprotective activity against amyloid beta (1 to 42 residues) induced cell death in rat PC12 cells assessed as increase in cell viability at 10 to 20 uM preincubated for 24 hrs followed by amyloid beta (1 to 42 residues) addition measured after 24 hrs by MTT assay; assay type: functional, cell-based
PC-12 [19] = experiment: Neuroprotective activity against amyloid beta (1 to 42 residues) induced cell death in rat PC12 cells by phase-contrast microscopy analysis; assay type: functional, cell-based
PC-12 [20] = experiment: Neuroprotective activity against Cu2+-amyloid beta (1 to 42 residues) induced cell death in rat PC12 cells assessed as increase in cell viability at 2.5 to 20 uM preincubated for 24 hrs followed by Cu2+-amyloid beta (1 to 42 residues) addition measured after 24 hrs by MTT assay; assay type: functional, cell-based

T1 sequence (P22303 whole entry): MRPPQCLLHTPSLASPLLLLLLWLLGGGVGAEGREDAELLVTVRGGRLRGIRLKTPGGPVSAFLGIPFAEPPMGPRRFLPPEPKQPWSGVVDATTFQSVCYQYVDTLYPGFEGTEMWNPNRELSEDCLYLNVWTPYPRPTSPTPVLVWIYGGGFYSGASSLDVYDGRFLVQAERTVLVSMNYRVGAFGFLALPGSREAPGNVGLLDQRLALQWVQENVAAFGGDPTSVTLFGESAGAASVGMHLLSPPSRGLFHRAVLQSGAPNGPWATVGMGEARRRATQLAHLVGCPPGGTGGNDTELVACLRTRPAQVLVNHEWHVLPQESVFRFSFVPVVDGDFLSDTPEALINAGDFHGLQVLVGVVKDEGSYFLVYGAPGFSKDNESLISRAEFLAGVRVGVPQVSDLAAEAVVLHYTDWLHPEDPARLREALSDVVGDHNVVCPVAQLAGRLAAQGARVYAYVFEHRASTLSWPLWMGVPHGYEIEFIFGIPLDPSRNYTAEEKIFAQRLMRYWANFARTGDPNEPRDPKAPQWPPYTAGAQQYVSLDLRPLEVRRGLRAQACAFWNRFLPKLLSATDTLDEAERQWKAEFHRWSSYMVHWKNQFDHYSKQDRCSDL

Compound	IC50 (Acetylcholinesterase [1]) [µM]	IC50 (Cholinesterase [2]) [µM]	IC50 (Cholinesterase [3]) [µM]	IC50 (Acetylcholinesterase [4]) [µM]	also measured
COc1cc2c(cc1OC)C(=O)C(CC1CCN(Cc3ccc([N+](=O)[O-])cc3)CC1)C2 (stereo not drawn)	1.91	85.8	12.2	4.02	–
COc1cc2c(cc1OC)C(=O)C(CC1CCN(Cc3ccc(C)cc3)CC1)C2 (stereo not drawn)	0.127	43.8	6.67	0.221	Activity (Rattus norvegicus): Non-Toxic
COc1cc2c(cc1OC)C(=O)C(CC1CCN(Cc3ccccc3[N+](=O)[O-])CC1)C2 (stereo not drawn)	3.11	91.2	31.1	0.106	–
COc1cc2c(cc1OC)C(=O)C(CC1CCN(Cc3cccc(Br)n3)CC1)C2 (stereo not drawn)	1.98	–	17.5	0.253	–
COC(=O)c1cccc(CN2CCC(CC3Cc4cc(OC)c(OC)cc4C3=O)CC2)n1 (stereo not drawn)	5.78	25.4	29.5	0.511	–
COc1cc2c(cc1OC)C(=O)C(CC1CCN(Cc3ccccc3C)CC1)C2 (stereo not drawn)	0.243	–	38.1	0.184	–
COc1ccc2[nH]cc(CCNC(C)=O)c2c1	–	–	–	–	Activity (PC-12 [5]): Active
COc1cc2c(cc1OC)C(=O)C(CC1CCN(Cc3cccc([N+](=O)[O-])c3)CC1)C2 (stereo not drawn)	0.652	–	42.4	0.414	–
COc1cc2c(cc1OC)C(=O)C(CC1CCN(Cc3ccc(Cl)cc3)CC1)C2 (stereo not drawn)	2.86	81.6	89.4	4.8	–
COc1cc2c(cc1OC)C(=O)C(CC1CCN(Cc3cccc(C)c3)CC1)C2 (stereo not drawn)	0.088	28.1	5.83	0.108	inhibition [6]: > 10%; Papp at 18 h (in vitro): 12.6 ×10⁻⁶ cm/s; inhibition (INH) [7]: < 10%
COc1cc2c(cc1OC)C(=O)C(CC1CCN(Cc3cccc(Cl)c3)CC1)C2 (stereo not drawn)	0.114	50.2	68.9	0.237	–
COc1cc2c(cc1OC)C(=O)C(CC1CCN(Cc3ncccc3C)CC1)C2 (stereo not drawn)	0.113	49.2	15.6	0.108	inhibition [6]: 29.3%; Papp at 18 h (in vitro): 8.4 ×10⁻⁶ cm/s; Activity (Rattus norvegicus): Non-Toxic
COc1cc2c(cc1OC)C(=O)C(CC1CCN(Cc3cccc(F)c3)CC1)C2 (stereo not drawn)	0.054	26.7	2.66	0.068	inhibition [6]: > 10%; Papp at 18 h (in vitro): 11.5 ×10⁻⁶ cm/s
COc1cc2c(cc1OC)C(=O)C(CC1CCN(Cc3cccc(Cl)n3)CC1)C2 (stereo not drawn)	0.883	78.7	31.6	0.409	–
COc1cc2c(cc1OC)C(=O)C(CC1CCN(Cc3ncc(C)cc3C)CC1)C2 (stereo not drawn)	0.814	8.55	6.31	1.01	–
COc1cc2c(cc1OC)C(=O)C(CC1CCN(Cc3ccccc3F)CC1)C2 (stereo not drawn)	0.032	12.8	3.71	0.043	Activity (Mus musculus [8]): Non-Toxic; Activity (Mus musculus [9]): Non-Toxic; inhibition [6]: > 10%; Activity (Mus musculus [10]): Non-Toxic; Papp at 18 h (in vitro): 13.7 ×10⁻⁶ cm/s; Activity (Mus musculus [11]): Non-Toxic; Activity (Mus musculus [12]): Dose-dependent effect; Activity (Mus musculus [13]): Non-Toxic; Activity (Rattus norvegicus): Non-Toxic; Activity (Mus musculus [14]): Non-Toxic; Activity (Mus musculus [15]): Non-Toxic; inhibition (INH) [7]: < 10%; inhibition (Acetylcholinesterase [16]): Active
COc1cc2c(cc1OC)C(=O)C(CC1CCN(Cc3ccc(F)cc3)CC1)C2 (stereo not drawn)	0.041	8.13	2.31	0.13	–
COc1cc2c(cc1OC)C(=O)C(CC1CCN(Cc3ccccc3Cl)CC1)C2 (stereo not drawn)	0.097	18.8	3.2	0.06	–
COc1cc2c(cc1OC)C(=O)C(CC1CCN(Cc3ccc4cccc(O)c4n3)CC1)C2 (stereo not drawn)	29.8	37.4	4.53	6.42	inhibition [6]: 44.8%; Papp at 18 h (in vitro): 6.1 ×10⁻⁶ cm/s
COc1cc2c(cc1OC)C(=O)C(CC1CCN(Cc3ccccc3)CC1)C2 (stereo not drawn)	–	–	–	–	inhibition [6]: > 10%
COc1cc2c(cc1OC)C(=O)C(CC1CCN(Cc3ccc(C(F)(F)F)cc3)CC1)C2 (stereo not drawn)	5.43	–	3.98	2.03	–
COc1cc2c(cc1OC)C(=O)C(CC1CCN(Cc3cccc(C(F)(F)F)c3)CC1)C2 (stereo not drawn)	2.12	76.9	18.2	0.197	–
COc1cc2c(cc1OC)C(=O)C(CC1CCN(Cc3cccc(F)n3)CC1)C2 (stereo not drawn)	0.195	38.9	21.1	0.246	–
COc1cc2c(cc1OC)C(=O)C(CC1CCN(Cc3ccccc3C(F)(F)F)CC1)C2 (stereo not drawn)	4.87	41.4	31.7	0.7	–
COc1cc2c(cc1OC)C(=O)C(CC1CCN(Cc3ccc(O)c4ncccc34)CC1)C2 (stereo not drawn)	20.9	–	7.65	27.3	Activity (PC-12 [17]): Active; Activity (PC-12 [18]): Active; Activity (PC-12 [19]): Active; inhibition [6]: 51.1%; Papp at 18 h (in vitro): 8.8 ×10⁻⁶ cm/s; Activity (PC-12 [20]): Active; Activity (Rattus norvegicus): Non-Toxic
COc1cc2c(cc1OC)C(=O)C(CC1CCN(Cc3ccccn3)CC1)C2 (stereo not drawn)	0.147	38.6	7.83	1.09	–
COc1cc2c(cc1OC)C(=O)C(CC1CCN(Cc3ccc4ccccc4n3)CC1)C2 (stereo not drawn)	8.43	6.35	9.68	8.71	–
